Experimental data taken from patent publication US20140219931A1, “P-MENTHANE-3,8-DIOL ISOMER MIXTURE, COOLING SENSATION COMPOSITION COMPRISING THE SAME, AND PRODUCT COMPRISING THE COOLING SENSATION COMPOSITION” (TAKASAGO INTERNATIONAL CORPORATION, priority 2011, published 2014).

Assays:
[1] = system: mouth of professional panelists; assay: Test Experiment 2: sensory evaluation of cooling sensation persistence in the mouth; format: in vivo, human; details: for Cooling sensation persistence time: 180 ppm aqueous solution retained in the mouth 30 seconds, then spit out, time until cooling sensation disappeared, average of 10 panelists; for persistence of cooling sensation effect relative to the (1R)-p-menthane-3,8-diol isomer mixture: 180 ppm aqueous solution, from Table 2
Protocol: (§1) [Test Experiment 2] Sensory Evaluation for Comparison of Cooling Sensation Persistence between (1S)-p-Menthane-3,8-diol Isomer Mixture, (1RS)-p-Menthane-3,8-diol Isomer Mixture, and (1R)-p-Menthane-3,8-diol Isomer Mixture Aqueous solutions containing 180 ppm of the (1S)-p-menthane-3,8-diol isomer mixture, the (1RS)-p-menthane-3,8-diol isomer mixture, and the (1R)-p-menthane-3,8-diol isomer mixture obtained in Example 1, Example 2, and Comparative Example 1, respectively, were prepared. Sensory evaluation was conducted in the mouth on these 180 ppm aqueous solutions by 10 professional panelists having 5-year or longer experience. In the sensory evaluation, each 180 ppm aqueous solution was retained in the month for 30 seconds, and then spit out. After that, the time taken until the cooling sensation disappeared was measured, and the average was calculated to evaluate the effect.

[2] = system: mouth of professional panelists; assay: Test Experiment 1: sensory evaluation of cooling sensation strength in the mouth; format: in vivo, human; details: 180 ppm aqueous solution in the mouth, 10 panelists; relative score, Comparative Example 1 taken as 3
Protocol: as §1, with “1]” for “2]”, “Strength” for “Persistence”, “experience.” for “experience. In the sensory evaluation, each 180 ppm aqueous solution was retained in the month for 30 seconds, and then spit out. After that, the time taken until the cooling sensation disappeared was measured, and the average was calculated to evaluate the effect.”

SMILES	Cooling sensation persistence time [1]	persistence of cooling sensation effect relative to the (1R)-p-menthane-3,8-diol isomer mixture [1]	Average cooling sensation strength score [2]
C[C@H]1CCC(C(C)(C)O)C(O)C1 (mixture of isomers) [Example 1, (1S)-p-menthane-3,8-diol isomer mixture]	15.5 min	approximately 3.6 times	15
CC1CCC(C(C)(C)O)C(O)C1 (racemic) [Example 2, (1RS)-p-menthane-3,8-diol isomer mixture]	9.8 min	approximately 2.3 times	9
C[C@@H]1CCC(C(C)(C)O)C(O)C1 (mixture of isomers) [Comparative Example 1, (1R)-p-menthane-3,8-diol isomer mixture, reference compound]	4.3 min	–	3
